The record followed here is patent US5013743A, “Selective antibacterial agent against campytobacter” (Takeda Chemical Industries, Ltd., priority 1989, dated 1991).

The structures appear in SMILES notation. In brackets after ≈: the same amount, converted by molar mass.

Test [1] deals with genus Campylobacter. As to the kind of experiment: Antibacterial activity against the genus Campylobacter (Tables 2 and 3, summary in words). Conditions: fluorinated alkyl derivatives vs other derivatives, Table 2 and Table 3. Format: cell-based, Campylobacter pylori. The method, then:
(§1) The minimum inhibitory concentration (MIC) of each compound was determined by the agar-plate dilution method based on the standard method advocated by Japan Society of Chemotherapy [cf: Chemotherapy, Jan. '81, p. 76]. The volume of agar medium per plate was 20 ml. Each of the test compounds was dissolved in dimethylsulfoxide at a concentration of 80 mg/ml or 40 mg/ml, and diluted 10 times with sterile distilled water. Furthermore, the aqueous solution of 8 mg/ml or 4 mg/ml was diluted serially 2-fold with sterile distilled water. To 2 ml of the diluted solution was added 18 ml of Brucella agar (BBL Microbiology Systems, Becton Dickinson and Co., Cockeysville, Md. 21030) containing 7% defibrinated horse blood (manufactured by Nippon Bio-supp. Center) and mixed well. Test strains frozen at -80° C. in Brucella broth (BBL) containing 10% horse serum were thawed and inoculated on a Brucella agar slant medium containing 7% defibrinated horse blood. The medium was incubated anaerobically at 37° C. for 3 days in a jar containing a piece of sponge sufficiently impregnated with water and Campy Pak™ (BBL). The organisms grown on the slant medium were collected and suspended in a Brucella broth to correspond to the turbidity of about 10^8 CFU/ml of common bacteria. One platinum loop of inoculum was streaked on the medium plates for determination. The plates were incubated under the same conditions as described above.

Test [2] has as its system C. pylori CLO 1. As to the kind of experiment: MIC, agar-plate dilution method, test strain F. In kind it is cell-based. The note with it: Helicobacter pylori, CLO1, 72 h, Brucella agar, 37° C., 3 days. The method, then: as §1
Test [3] relates to C. pylori CLO 6. As to the kind of experiment: MIC, agar-plate dilution method, test strain G. The note with it: Helicobacter pylori, CLO6, 72 h, Brucella agar, 37° C., 3 days. Format: cell-based. The method, then: as §1
The subject of test [4] is C. pylori PCL 56. As to the kind of experiment: MIC, agar-plate dilution method, test strain C. In kind it is cell-based. The note with it: Helicobacter pylori, PCL56, 72 h, Brucella agar, 37° C., 3 days. The method, then:
as §1, with “above. […] The results are shown in Table 2 and Table 3. | C: C. pylori PCL 56” for “above.”

For test [5], the system named is C. pylori NCTC 11916. As to the kind of experiment: MIC, agar-plate dilution method, test strain A. In kind it is cell-based. Conditions: Helicobacter pylori, NCTC11916, 72 h, Brucella agar, 37° C., 3 days. The method, then: as §1
The test system of test [6] is C. pylori KS 13. As to the kind of experiment: MIC, agar-plate dilution method, test strain E. The note with it: Helicobacter pylori, KS13, 72 h, Brucella agar, 37° C., 3 days. In kind it is cell-based. The method, then: as §1
Test [7] relates to C. pylori NCTC 11637. As to the kind of experiment: MIC, agar-plate dilution method, test strain B. Format: cell-based. Conditions: Helicobacter pylori, NCTC11637, 72 h, Brucella agar, 37° C., 3 days. The method, then:
as §1

Test [8] concerns C. pylori CPY 00111. As to the kind of experiment: MIC, agar-plate dilution method, test strain D. Format: cell-based. Conditions: Helicobacter pylori, CPY00111, 72 h, Brucella agar, 37° C., 3 days. The method, then: as §1

As to `Cc1c(OCC(F)(F)C(F)(F)F)ccnc1C[S+]([O-])c1nc2ccccc2[nH]1` (stereo not shown) [Compound 3], the “antibacterial activity compared with other derivatives” value in test [1] was “stronger antibacterial activity”. In addition, the MIC in test [2] was 1.56 µg/mL (≈ 3.72 µM); in test [3], 6.25 µg/mL (≈ 14.9 µM); in test [4], 3.13 µg/mL (≈ 7.46 µM); in test [5] it was 3.13 µg/mL (≈ 7.46 µM); in test [6], 3.13 µg/mL (≈ 7.46 µM); in test [7], 6.25 µg/mL (≈ 14.9 µM). The MIC in test [8] came to 3.13 µg/mL (≈ 7.46 µM).

Turning to `Cc1c(OCC(F)(F)C(F)F)ccnc1C[S+]([O-])c1nc2ccccc2[nH]1` (stereo not shown) [Compound 4], the “antibacterial activity compared with other derivatives” value in test [1] is “stronger antibacterial activity”. For the same compound, the MIC in test [2] turned out to be 0.78 µg/mL (≈ 1.94 µM); in test [3], 6.25 µg/mL (≈ 15.6 µM); in test [4] it was 6.25 µg/mL (≈ 15.6 µM); in test [5], 1.56 µg/mL (≈ 3.89 µM); in test [6], 1.56 µg/mL (≈ 3.89 µM); in test [7] it was 6.25 µg/mL (≈ 15.6 µM). For the same compound, inhibition of growth in test [8] (MIC) required 1.56 µg/mL (≈ 3.89 µM).

On to `CC(C)COc1ccnc(CSc2nc3ccccc3[nH]2)c1` [Compound 7], for which the minimum inhibitory concentration (MIC) in test [2], in test [3], in test [4], in test [5], in test [6] and in test [7] was 12.5 µg/mL (≈ 39.9 µM) in each case. This compound had an MIC in test [8] of 12.5 µg/mL (≈ 39.9 µM).

Regarding `CC(C)COc1ccnc(CSc2nc3cc(C(F)(F)F)ccc3[nH]2)c1` [Compound 8], the MIC in test [2], in test [3], in test [4], in test [5], in test [6] and in test [7] was 12.5 µg/mL (≈ 32.8 µM) each time. It took 12.5 µg/mL (≈ 32.8 µM) to inhibit growth in test [8] (MIC).

Consider `CC(C)Oc1ccnc(CSc2nc3cc(C(F)(F)F)ccc3[nH]2)c1` [Compound 9], for which the MIC in test [2], in test [3], in test [4], in test [5], in test [6] and in test [7] was 12.5 µg/mL (≈ 34 µM) in each case. Besides, it took 12.5 µg/mL (≈ 34 µM) to inhibit growth in test [8] (MIC).

For the compound `C=CCOc1ccnc(CSc2nc3cc(C(F)(F)F)ccc3[nH]2)c1` [Compound 10], the minimum inhibitory concentration (MIC) in test [2], in test [3], in test [4], in test [5], in test [6] and in test [7] was 25 µg/mL (≈ 68.4 µM) in each case. In test [8], this compound showed an MIC of 25 µg/mL (≈ 68.4 µM).

Take `C#CCOc1ccnc(CSc2nc3cc(C(F)(F)F)ccc3[nH]2)c1` [Compound 11]: the MIC in test [2], in test [3], in test [4], in test [5], in test [6] and in test [7] was 12.5 µg/mL (≈ 34.4 µM) throughout. For the same compound, in test [8], the MIC worked out at 12.5 µg/mL (≈ 34.4 µM).

For `Cc1c(OCC(F)(F)C(F)F)ccnc1CSc1nc2ccccc2[nH]1` [Compound 12], the “antibacterial activity compared with other derivatives” value in test [1] is “stronger antibacterial activity”. Besides, the MIC turned out to be 1.56 µg/mL (≈ 4.05 µM) in test [2]; 0.78 µg/mL (≈ 2.02 µM) in test [3]; 1.56 µg/mL (≈ 4.05 µM) in test [4]; 1.56 µg/mL (≈ 4.05 µM) in test [5]; 1.56 µg/mL (≈ 4.05 µM) in test [6]; 0.78 µg/mL (≈ 2.02 µM) in test [7]. For the same compound, the minimum inhibitory concentration (MIC) in test [8] amounted to 1.56 µg/mL (≈ 4.05 µM).

For the compound `Cc1c(OCC(F)(F)C(F)(F)F)ccnc1CSc1nc2ccccc2[nH]1` [Compound 13], the “antibacterial activity compared with other derivatives” value in test [1] is reported as “stronger antibacterial activity”. Further, the MIC in test [2], in test [3], in test [4], in test [5], in test [6] and in test [7] was 1.56 µg/mL (≈ 3.87 µM) in each case. In addition, the MIC in test [8] was found to be 1.56 µg/mL (≈ 3.87 µM).
